From patent publication US20070197609A1, “SALTS OF INDUCIBLE NITRIC OXIDE SYNTHASE DIMERIZATION INHIBITORS” (KALYPSYS, INC., priority 2005, published 2007)

Assays:
[1] = Moisture sorption/desorption analysis for hygroscopicity; assay type: physicochemical; details: for hygroscopicity: moisture sorption/desorption behavior; for initial weight loss upon equilibration: at 5% RH; for total weight gain: at 95% RH
Description: This weight was gradually regained by approximately 75% RH with a total weight gain of approximately 0.64% at 95% RH. Slightly more weight was lost during desorption with litle hysterisis.
The moisture sorption/desorption profiles of Compound 2 hydrochloride, Compound 2 acetate, and compound 2 adipate are presented in Table 7. […] Relative humidity was then increased and weight measurements taken at regular intervals. Change is given as percent of original sample.

[2] = Solubility in selected solvents; assay type: physicochemical; details: thermodynamic from solid
Protocol: The solubility of Compound 2 acetate was investigated with regard to potential process and formulation solvents. The solubility of Compound 2 acetate was evaluated by preparing saturated solution of Compound 2 in the selected solvents, filtering the samples (0.22 μm), diluting, and determining concentration by external standard HPLC using a rapid analysis assay.

hnNOS = target: T1, hnNOS (Homo sapiens, UniProt P29475); details: DAN assay, HEK293 cells transfected with NOS isoform; cited from earlier work
T1 construct: expressed in transfected cells; host or cells: HEK293

LPS Induced iNOS = details: rat; cited from earlier work
heNOS = target: T2, heNOS (Homo sapiens, UniProt P29474); details: DAN assay, HEK293 cells transfected with NOS isoform; cited from earlier work
T2 construct: expressed in transfected cells; host or cells: HEK293
T2 sequence (P29474 2-1203 limits assumed): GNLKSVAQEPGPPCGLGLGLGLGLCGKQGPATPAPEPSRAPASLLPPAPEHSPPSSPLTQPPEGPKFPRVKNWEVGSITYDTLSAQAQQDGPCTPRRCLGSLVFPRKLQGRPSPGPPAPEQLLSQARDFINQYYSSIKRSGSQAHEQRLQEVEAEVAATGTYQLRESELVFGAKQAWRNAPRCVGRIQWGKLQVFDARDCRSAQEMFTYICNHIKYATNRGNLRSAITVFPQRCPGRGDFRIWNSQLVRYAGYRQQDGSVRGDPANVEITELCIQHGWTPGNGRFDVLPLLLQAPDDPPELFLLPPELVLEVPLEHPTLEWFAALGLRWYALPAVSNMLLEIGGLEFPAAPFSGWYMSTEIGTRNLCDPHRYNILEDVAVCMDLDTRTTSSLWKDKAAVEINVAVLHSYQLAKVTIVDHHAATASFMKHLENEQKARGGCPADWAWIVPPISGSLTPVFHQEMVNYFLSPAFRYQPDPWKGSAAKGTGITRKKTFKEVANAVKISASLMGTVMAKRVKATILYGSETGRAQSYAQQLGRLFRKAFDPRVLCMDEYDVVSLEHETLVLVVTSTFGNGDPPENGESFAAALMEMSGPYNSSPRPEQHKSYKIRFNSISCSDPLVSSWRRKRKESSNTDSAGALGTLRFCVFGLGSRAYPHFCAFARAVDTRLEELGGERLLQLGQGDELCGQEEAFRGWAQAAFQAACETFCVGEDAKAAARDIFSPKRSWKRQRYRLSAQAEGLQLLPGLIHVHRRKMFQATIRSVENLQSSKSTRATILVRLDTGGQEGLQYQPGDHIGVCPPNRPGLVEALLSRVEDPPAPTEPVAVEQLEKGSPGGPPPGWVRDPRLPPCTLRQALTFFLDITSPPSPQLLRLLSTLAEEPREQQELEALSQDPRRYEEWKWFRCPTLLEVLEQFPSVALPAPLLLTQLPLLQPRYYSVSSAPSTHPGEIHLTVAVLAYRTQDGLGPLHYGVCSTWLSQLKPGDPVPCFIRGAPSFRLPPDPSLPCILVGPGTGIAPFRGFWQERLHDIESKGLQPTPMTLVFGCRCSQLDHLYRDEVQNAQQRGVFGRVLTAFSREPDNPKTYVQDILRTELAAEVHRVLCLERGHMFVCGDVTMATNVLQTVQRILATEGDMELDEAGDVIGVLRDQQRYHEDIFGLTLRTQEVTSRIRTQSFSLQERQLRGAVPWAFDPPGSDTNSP

hiNOS = target: T3, hiNOS (Homo sapiens, UniProt P35228); details: DAN assay, HEK293 cells transfected with NOS isoform; cited from earlier work
T3 construct: expressed in transfected cells; host or cells: HEK293

T1 sequence (P29475 whole entry, canonical isoform): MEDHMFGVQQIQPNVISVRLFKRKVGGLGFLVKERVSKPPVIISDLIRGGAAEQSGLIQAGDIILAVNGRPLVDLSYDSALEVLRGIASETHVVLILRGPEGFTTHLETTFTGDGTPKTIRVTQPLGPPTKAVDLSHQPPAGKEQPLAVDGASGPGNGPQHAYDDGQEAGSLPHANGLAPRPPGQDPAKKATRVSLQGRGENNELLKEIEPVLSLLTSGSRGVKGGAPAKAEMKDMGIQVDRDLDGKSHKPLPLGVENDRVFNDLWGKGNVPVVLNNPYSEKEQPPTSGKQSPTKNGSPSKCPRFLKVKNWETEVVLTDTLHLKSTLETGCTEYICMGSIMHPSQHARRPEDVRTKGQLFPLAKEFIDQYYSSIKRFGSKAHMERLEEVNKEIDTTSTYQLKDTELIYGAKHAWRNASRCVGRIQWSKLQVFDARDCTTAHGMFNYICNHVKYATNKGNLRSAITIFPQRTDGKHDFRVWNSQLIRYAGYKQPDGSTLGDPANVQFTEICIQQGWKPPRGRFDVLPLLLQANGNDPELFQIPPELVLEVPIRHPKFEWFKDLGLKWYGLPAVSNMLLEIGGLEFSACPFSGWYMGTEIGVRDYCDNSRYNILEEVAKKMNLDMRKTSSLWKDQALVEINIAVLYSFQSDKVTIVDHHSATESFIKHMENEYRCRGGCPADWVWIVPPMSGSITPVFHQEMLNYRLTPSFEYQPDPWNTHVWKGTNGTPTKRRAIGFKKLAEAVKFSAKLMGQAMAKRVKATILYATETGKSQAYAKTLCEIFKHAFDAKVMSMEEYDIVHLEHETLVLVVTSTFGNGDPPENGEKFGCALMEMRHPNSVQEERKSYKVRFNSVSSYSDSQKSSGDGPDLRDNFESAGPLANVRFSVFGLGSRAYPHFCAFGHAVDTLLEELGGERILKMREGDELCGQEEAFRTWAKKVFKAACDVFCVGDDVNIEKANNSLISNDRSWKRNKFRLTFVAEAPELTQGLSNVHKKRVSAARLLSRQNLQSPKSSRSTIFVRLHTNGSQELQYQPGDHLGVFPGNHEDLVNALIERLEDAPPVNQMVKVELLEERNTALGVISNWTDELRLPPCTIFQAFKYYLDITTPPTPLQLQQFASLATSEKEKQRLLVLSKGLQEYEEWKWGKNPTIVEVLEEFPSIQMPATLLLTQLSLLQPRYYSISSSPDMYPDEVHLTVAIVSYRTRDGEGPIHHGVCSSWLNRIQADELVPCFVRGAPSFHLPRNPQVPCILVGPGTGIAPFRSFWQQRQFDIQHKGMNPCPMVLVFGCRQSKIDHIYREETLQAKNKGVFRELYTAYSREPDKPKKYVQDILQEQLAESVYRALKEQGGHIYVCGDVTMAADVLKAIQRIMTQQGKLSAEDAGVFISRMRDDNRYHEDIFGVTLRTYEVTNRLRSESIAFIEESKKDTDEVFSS

| Compound | Weight % Change, Adsorption ([1]; 5 Percent Relative Humidity) [%] | Weight % Change, Desorption ([1]; 5 Percent Relative Humidity) [%] | Weight % Change, Adsorption ([1]; 15 Percent Relative Humidity) [%] | Weight % Change, Desorption ([1]; 15 Percent Relative Humidity) [%] | Weight % Change, Adsorption ([1]; 25 Percent Relative Humidity) [%] | Weight % Change, Desorption ([1]; 25 Percent Relative Humidity) [%] | Weight % Change, Adsorption ([1]; 35 Percent Relative Humidity) [%] | Weight % Change, Desorption ([1]; 35 Percent Relative Humidity) [%] | Weight % Change, Adsorption ([1]; 45 Percent Relative Humidity) [%] | Weight % Change, Desorption ([1]; 45 Percent Relative Humidity) [%] | Weight % Change, Adsorption ([1]; 55 Percent Relative Humidity) [%] | Weight % Change, Desorption ([1]; 55 Percent Relative Humidity) [%] | Weight % Change, Adsorption ([1]; 65 Percent Relative Humidity) [%] | Weight % Change, Desorption ([1]; 65 Percent Relative Humidity) [%] | Weight % Change, Adsorption ([1]; 75 Percent Relative Humidity) [%] | Weight % Change, Desorption ([1]; 75 Percent Relative Humidity) [%] | Weight % Change, Adsorption ([1]; 85 Percent Relative Humidity) [%] | Weight % Change, Desorption ([1]; 85 Percent Relative Humidity) [%] | Weight % Change, Adsorption ([1]; 95 Percent Relative Humidity) [%] | hygroscopicity [1] | also measured |
| --- | --- | --- | --- | --- | --- | --- | --- | --- | --- | --- | --- | --- | --- | --- | --- | --- | --- | --- | --- | --- | --- |
| CC(=O)O.CN(CCCNCc1ccc2c(c1)OCO2)c1nc(-n2ccnc2)ns1 [Compound 2 acetate, N′-Benzo[1,3]dioxol-5-ylmethyl-N-(3-imidazol-1-yl-[1,2,4]thiadiazol-5-yl)-N-methyl-propane-1,3-diamine acetate salt] | <1 | <1 | <1 | <1 | <1 | <1 | <1 | <1 | <1 | <1 | <1 | <1 | <1 | <1 | <1 | <1 | <3 | <3 | <5 | significantly hygroscopic at high RH | Weight % Change, Desorption ([1]; 95 Percent Relative Humidity): <5%; weight gain ([1]; over the range of 5 to 85% relative humidity (RH)): minimal weight gain; solubility ([2]; acetonitrile, organic solvent or mixture): 2100 µg/mL; solubility ([2]; dichloromethane, organic solvent or mixture): 10000 µg/mL; solubility ([2]; ethanol, organic solvent or mixture): 8500 µg/mL; solubility ([2]; ethyl acetate, organic solvent or mixture): 2000 µg/mL; solubility ([2]; hexanes, organic solvent or mixture): 3 µg/mL; solubility ([2]; isopropanol, organic solvent or mixture): 3700 µg/mL; solubility ([2]; methanol, organic solvent or mixture): 58300 µg/mL; solubility ([2]; propylene glycol, organic solvent or mixture): 36700 µg/mL; solubility ([2]; water): 44600 µg/mL; solubility ([2]; water:ethanol:propylene glycol (40:40:20), aqueous with cosolvent or surfactant or cyclodextrin): 101000 µg/mL |
| CN(CCCNCc1ccc2c(c1)OCO2)c1nc(-n2ccnc2)ns1 [Compound 2, N′-Benzo[1,3]dioxol-5-ylmethyl-N-(3-imidazol-1-yl-[1,2,4]thiadiazol-5-yl)-N-methyl-propane-1,3-diamine] | – | – | – | – | – | – | – | – | – | – | – | – | – | – | – | – | – | – | – | not hygroscopic | initial weight loss upon equilibration [1]: approximately 0.16%; total weight gain [1]: approximately 0.64%; EC50 (hnNOS): > 1000 nM; LPS Induced iNOS In Vivo, ED50 (LPS Induced iNOS): + ((+), ED50 <10); EC50 (heNOS): > 10000 nM; EC50 (hiNOS): < 1000 nM |
| CN(CCCNCc1ccc2c(c1)OCO2)c1nc(-n2ccnc2)ns1.O=C(O)CCCCC(=O)O [Compound 2 adipate, N′-Benzo[1,3]dioxol-5-ylmethyl-N-(3-imidazol-1-yl-[1,2,4]thiadiazol-5-yl)-N-methyl-propane-1,3-diamine adipate salt] | <0 | <0 | <0 | <0 | <0 | <0 | <0 | <0 | <1 | <1 | <1 | <1 | <1 | <1 | <2 | <2 | <3 | <3 | >6 | hygroscopic, especially at elevated humidities | Weight % Change, Desorption ([1]; 95 Percent Relative Humidity): >6%; initial weight loss upon equilibration [1]: less than 1%; total weight gain [1]: over 6% |
| CN(CCCNCc1ccc2c(c1)OCO2)c1nc(-n2ccnc2)ns1.Cl [Compound 2 hydrochloride, N′-Benzo[1,3]dioxol-5-ylmethyl-N-(3-imidazol-1-yl-[1,2,4]thiadiazol-5-yl)-N-methyl-propane-1,3-diamine hydrochloride salt] | <−1 | <−2 | <−1 | <−1 | <−1 | <−1 | <−1 | <−1 | <−1 | <−1 | <−1 | <0 | <0 | <0 | <0 | <1 | <1 | <2 | <5 | not hygroscopic | Weight % Change, Desorption ([1]; 95 Percent Relative Humidity): <5%; initial weight loss upon equilibration [1]: < 1%; total weight gain [1]: < 5% |
| Benzo[1,3]dioxol-5-ylmethyl-{2-[2-(2-imidazol-1-yl-6-methyl-pyrimidin-4-yl)-pyrrolidin-1-yl]-ethyl}-amine [Compound 1] | – | – | – | – | – | – | – | – | – | – | – | – | – | – | – | – | – | – | – | – | EC50 (hnNOS): > 1000 nM; LPS Induced iNOS In Vivo, ED50 (LPS Induced iNOS): + ((+), ED50 <10); EC50 (heNOS): > 10000 nM; EC50 (hiNOS): < 1000 nM |
